{
  "source": "patent US20220041681A1",
  "about": "(MEDIMMUNE LIMITED, priority 2016, published 2022)",
  "key": {"[1]": {"tested_on": "diet induced obesity (DIO) mouse model", "assay": "Diet induced obesity (DIO) mouse model, study B", "format": "in vivo", "conditions": "for FGF 21 / HOMA / Hepatic TG / Plasma Cholesterol / Plasma NEFA / Plasma TG: day 14; for Glucose / Insulin: day 14, 4-hour fasting", "description": "The body weight of the animals was monitored daily throughout the dosing period. At day 14, blood samples for the measurement of plasma glucose and insulin from conscious mice were obtained after a 4-hour fasting period. Mice were then anaesthetized using isoflourane and terminal blood was collected from the capillary bed behind the eye. The following parameters were measured: blood chemistry measurements of triglycerides, total cholesterol, non-esterified fatty acids (NEFA), beta-hydroxybutyrate and fibroblast growth factor 21 (FGF21) (Table 16 and Table 17 below)."}, "[2]": {"tested_on": "overweight or obese subjects with type 2 diabetes mellitus (T2DM)", "assay": "Phase 1/2 multiple-ascending dose study Part I (Cohorts 1-4)", "method": "(§1) A Phase 1/2, randomized, double-blind, multiple-ascending dose study is performed in two parts (A and B).\nPart A consists of 3 cohorts.\nPart B consists of 1 cohort.\n(§2) The initial dose is 100 μg. […] The study duration for each subject varies by cohort and consists of an inpatient multiple-ascending dose (MAD) or up-titration evaluation period (beginning on Day −2 and ending after Day 8 for Cohort 1, Day 12 for Cohort 2, Day 16 for Cohort 3, and Day 13 for Cohort 4) and an outpatient follow-up period.\n(§3) The subject remains in the facility for observation and safety tests including ECGs, telemetry, monitoring of vital signs, and assessments of the injection site for potential reactions throughout the day and during the treatment period.\n(§4) Mixed-meal test (MMT) procedures are performed on Day −1 and on the last day of the highest dose level achieved for all cohorts. […] For the MMT, the subject consumes a standardized meal (Ensure Plus %) within 5 minutes, and timed serial blood samples are obtained for measurement of glucose and parameters related to glucose metabolism just before and through 240 minutes after consumption of the standandized meal. During the inpatient period, finger prick glucose samples are collected 15 minutes prior to and 2 hours after breakfast, mid-day, and evening meals, and prior to going to bed.\n(§5) Cohort 4 subjects are re-admitted for an overnight inpatient stay at the end of the at-home self-administration period to collect the final endpoints.\n(§6) Subjects are discharged from the unit the day after the final dose is administered in the study.\n(§7) Missing measurements at the end of treatment are replaced with the last available measurement. The comparison is conducted at a two-sided significance level of 0.1."}, "[3]": {"assay": "Phase 1 single-ascending dose study", "conditions": "human, plasma, subcutaneous, 300 μg"}, "[4]": {"tested_on": "overweight or obese subjects with type 2 diabetes mellitus (T2DM)", "conditions": "human, in vivo", "method": "as §1\nPart A consists of 3 cohorts.\nPart B consists of 1 cohort.\nas §2, §3, §4, §5, §6, §7"}, "human serum albumin": {"target": "human serum albumin (Homo sapiens, UniProt P02768)", "sequence (P02768 25-609)": "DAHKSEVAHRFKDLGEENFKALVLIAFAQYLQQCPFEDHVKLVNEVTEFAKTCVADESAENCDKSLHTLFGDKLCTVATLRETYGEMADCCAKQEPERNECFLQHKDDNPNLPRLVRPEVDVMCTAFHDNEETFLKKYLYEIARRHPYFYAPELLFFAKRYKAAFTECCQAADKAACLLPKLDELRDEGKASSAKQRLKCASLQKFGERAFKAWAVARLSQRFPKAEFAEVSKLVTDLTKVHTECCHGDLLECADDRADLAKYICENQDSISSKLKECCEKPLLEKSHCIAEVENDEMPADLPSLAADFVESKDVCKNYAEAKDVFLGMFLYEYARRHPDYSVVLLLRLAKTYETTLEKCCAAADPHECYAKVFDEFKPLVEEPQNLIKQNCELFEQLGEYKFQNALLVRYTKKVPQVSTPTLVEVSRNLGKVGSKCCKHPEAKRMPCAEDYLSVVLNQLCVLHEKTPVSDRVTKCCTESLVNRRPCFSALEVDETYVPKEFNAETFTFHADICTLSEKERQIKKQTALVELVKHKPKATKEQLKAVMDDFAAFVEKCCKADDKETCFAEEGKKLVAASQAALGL", "assay": "Fraction of free peptide calculated from variation in cAMP generation with HSA concentration", "conditions": "human", "excerpt": "Data was transformed to % Delta F as described in manufacturer's guidelines and analysed by 4-parameter logistic fit to determine EC50 values. […] To compare the balance of activities at the GLP1R and GlucR between different peptides and across different conditions, these can be correlated using the calculation below, where the EC50's are related to those of the natural ligands."}, "[5]": {"conditions": "Cohort 4, 200 ug, n = 25 active"}},
  "data": [
    {"compound": "CCCCCCCCCCCCCCCC(=O)N[C@@H](CCC(=O)NCCCC[C@H](NC(=O)[C@H](CC(=O)O)NC(=O)[C@H](CO)NC(=O)C(NC(=O)[C@H](Cc1ccccc1)NC(=O)C(NC(=O)CNC(=O)[C@H](CCC(N)=O)NC(=O)[C@H](CO)NC(=O)[C@@H](N)Cc1cnc[nH]1)[C@@H](C)O)[C@@H](C)O)C(=O)N[C@@H](CO)C(=O)N[C@@H](CCC(=O)O)C(=O)N[C@@H](Cc1ccc(O)cc1)C(=O)N[C@@H](CC(C)C)C(=O)N[C@@H](CC(=O)O)C(=O)N[C@@H](CO)C(=O)N[C@@H](CCC(=O)O)C(=O)N[C@@H](CCCNC(=N)N)C(=O)N[C@@H](C)C(=O)N[C@@H](CCCNC(=N)N)C(=O)N[C@@H](CC(=O)O)C(=O)N[C@@H](Cc1ccccc1)C(=O)N[C@H](C(=O)N[C@@H](C)C(=O)N[C@@H](Cc1c[nH]c2ccccc12)C(=O)N[C@@H](CC(C)C)C(=O)N[C@@H](CCC(=O)O)C(=O)N[C@@H](C)C(=O)NCC(=O)NCC(=O)O)C(C)C)C(=O)O", "note": "(stereo partly drawn) [Peptide G933]", "values": [
      {"measurement": "BW day 14 (% change of vehicle mean)", "setting": "[1]; 5 nmol/kg sc twice daily for 14 days", "value": "−11", "unit": "%"},
      {"measurement": "FGF 21", "setting": "[1]; 5 nmol/kg sc twice daily", "value": 2682, "unit": "pg/mL"},
      {"measurement": "HOMA", "setting": "[1]; 5 nmol/kg sc twice daily", "value": 3.31},
      {"measurement": "Hepatic TG", "setting": "[1]; 5 nmol/kg sc twice daily", "value": 19.3, "unit": "g TG/100 g tissue"},
      {"measurement": "Plasma Cholesterol", "setting": "[1]; 5 nmol/kg sc twice daily", "value": 2.88, "unit": "mM"},
      {"measurement": "Plasma NEFA", "setting": "[1]; 5 nmol/kg sc twice daily", "value": 0.28, "unit": "mM"},
      {"measurement": "Plasma TG", "setting": "[1]; 5 nmol/kg sc twice daily", "value": 0.89, "unit": "mM"},
      {"measurement": "Glucose", "setting": "[1]; 5 nmol/kg sc twice daily", "value": 6.2, "unit": "mM"},
      {"measurement": "Insulin", "setting": "[1]; 5 nmol/kg sc twice daily", "value": 0.53, "unit": "nM"},
      {"measurement": "BW day 14 (% change of vehicle mean)", "setting": "[1]; 10 nmol/kg sc twice daily for 14 days", "value": "−19", "unit": "%"},
      {"measurement": "FGF 21", "setting": "[1]; 10 nmol/kg sc twice daily", "value": 4459, "unit": "pg/mL"},
      {"measurement": "HOMA", "setting": "[1]; 10 nmol/kg sc twice daily", "value": 1.98},
      {"measurement": "Hepatic TG", "setting": "[1]; 10 nmol/kg sc twice daily", "value": 14.7, "unit": "g TG/100 g tissue"},
      {"measurement": "Plasma Cholesterol", "setting": "[1]; 10 nmol/kg sc twice daily", "value": 2.32, "unit": "mM"},
      {"measurement": "Plasma NEFA", "setting": "[1]; 10 nmol/kg sc twice daily", "value": 0.27, "unit": "mM"},
      {"measurement": "Plasma TG", "setting": "[1]; 10 nmol/kg sc twice daily", "value": 0.16, "unit": "mM"},
      {"measurement": "Glucose", "setting": "[1]; 10 nmol/kg sc twice daily", "value": 7.2, "unit": "mM"},
      {"measurement": "Insulin", "setting": "[1]; 10 nmol/kg sc twice daily", "value": 0.27, "unit": "nM"},
      {"measurement": "body weight over the 14 day dosing period", "setting": "[1]; study B, in words", "value": "dose dependent and continuous weight loss"},
      {"measurement": "Fasting Glucose (change)", "setting": "[2]; Cohort 1, 100 ug, n = 6 active", "value": -28.00, "unit": "mg/dL"},
      {"measurement": "Glucose AUG (change)", "setting": "[2]; Cohort 1, 100 ug, n = 6 active", "value": "−27.3"},
      {"measurement": "Weight (change)", "setting": "[2]; Cohort 1, 100 ug, n = 6 active", "value": -1.1, "unit": "kg"},
      {"measurement": "Fasting Glucose (change)", "setting": "[2]; Cohort 2, 150 ug, n = 6 active", "value": -17.90, "unit": "mg/dL"},
      {"measurement": "Glucose AUG (change)", "setting": "[2]; Cohort 2, 150 ug, n = 6 active", "value": "−8.9"},
      {"measurement": "Weight (change)", "setting": "[2]; Cohort 2, 150 ug, n = 6 active", "value": -0.5, "unit": "kg"},
      {"measurement": "weight differential", "setting": "[2]; Cohort 3", "value": "more than 2 kg"},
      {"measurement": "Fasting Glucose (change)", "setting": "[2]; Cohort 3, 200 ug, n = 6 active", "value": -43.20, "unit": "mg/dL"},
      {"measurement": "Glucose AUG (change)", "setting": "[2]; Cohort 3, 200 ug, n = 6 active", "value": "−31.6"},
      {"measurement": "Weight (change)", "setting": "[2]; Cohort 3, 200 ug, n = 6 active", "value": -2.4, "unit": "kg"},
      {"measurement": "reduction in liver volume compared to placebo", "setting": "[2]; Cohort 4", "value": 0.14, "unit": "L"},
      {"measurement": "Death (grade 5 severity)", "setting": "[2]; Cohort 4, 200 μg, N = 25", "value": 0},
      {"measurement": "Subject with at least one G933-related serious event", "setting": "[2]; Cohort 4, 200 μg, N = 25", "value": 0},
      {"measurement": "Subject with at least one event", "setting": "[2]; Cohort 4, 200 μg, N = 25", "value": "22 (88.8%)"},
      {"measurement": "Subject with at least one event leading to discontinuation of G933", "setting": "[2]; Cohort 4, 200 μg, N = 25", "value": "3 (12.0%)"},
      {"measurement": "Subject with at least one event of ≥ grade 3 severity", "setting": "[2]; Cohort 4, 200 μg, N = 25", "value": 0},
      {"measurement": "Subject with at least one serious event", "setting": "[2]; Cohort 4, 200 μg, N = 25", "value": 0},
      {"measurement": "Fasting Glucose (change)", "setting": "[2]; [5]", "value": -31.62, "unit": "mg/dL"},
      {"measurement": "Glucose AUG (change)", "setting": "[2]; [5]", "value": "−22.5"},
      {"measurement": "patients who vomited", "setting": "[2]; Cohort 4, 8 patients", "value": 32.0, "unit": "%"},
      {"measurement": "patients reporting nausea", "setting": "[2]; Cohort 4, 13 patients", "value": 52.0, "unit": "%"},
      {"measurement": "patients who lost at least 2% of their weight", "setting": "[2]; Cohort 4, 41 days", "value": 84, "unit": "%"},
      {"measurement": "patients who lost at least 5 kg", "setting": "[2]; Cohort 4, 41 days", "value": 44, "unit": "%"},
      {"measurement": "percent weight loss difference between G933 and placebo", "setting": "[2]; Cohort 4, 41 days", "value": 2.47, "unit": "%"},
      {"measurement": "weight loss difference between G933 and placebo", "setting": "[2]; Cohort 4, 41 days", "value": 2.12, "unit": "kg"},
      {"measurement": "increase in heart rate", "setting": "[2]; Cohort 4, Day 41", "value": 6.9, "unit": "bpm"},
      {"measurement": "percent of weight lost", "setting": "[2]; Cohort 4, after 41 days", "value": "about 4.18%"},
      {"measurement": "weight lost", "setting": "[2]; Cohort 4, after 41 days", "value": "about 3.83 kg"},
      {"measurement": "HbA1c reduction", "setting": "[2]; Cohort 4, after 41 days of treatment", "value": 0.92, "unit": "%"},
      {"measurement": "mean HbA1c on day 42", "setting": "[2]; Cohort 4, baseline mean […]", "value": 6.3, "unit": "%"},
      {"measurement": "mean reduction in glucose AUC from baseline (day 1) to day 41", "setting": "[2]; Cohort 4, up to 200 μg", "value": 38.5, "unit": "%"},
      {"measurement": "patients with vomiting", "setting": "[2]; Cohorts 1-3 (n=5)", "value": 26, "unit": "%"},
      {"measurement": "weight loss", "setting": "[2]; Cohorts 1-3, dose dependent trend", "value": "up to 2 kg"},
      {"measurement": "mixed-meal test glucose AUC reduction", "setting": "[2]; across Cohorts 1-3 (100-200 μg QD)", "value": "> 40", "unit": "%"},
      {"measurement": "increase in pulse rate", "setting": "[2]; each of Cohorts 1-3", "value": "about 10 bpm"},
      {"measurement": "Between-subject variability in Cmax", "setting": "[2]; larger Cohort 4", "value": "40-50%"},
      {"measurement": "anti-G933 antibody", "setting": "[2]; post baseline, Cohorts 1-3", "value": "Only one sample was confirmed positive"},
      {"measurement": "Between-subject variability in Cmax", "setting": "[2]; smaller cohorts, Parts I and II", "value": "20-30%"},
      {"measurement": "AUC(0-t)", "setting": "[3]", "value": 364, "unit": "ng·h/mL"},
      {"measurement": "half-life", "setting": "[4]", "value": "8 to 11", "unit": "h"},
      {"measurement": "free peptide at 4.4% HSA", "setting": "human serum albumin", "value": 0.29, "unit": "%"}
    ]}
  ]
}
